Test results: patent US20150010474A1, “Compounds And Methods For Selective Imaging And/Or Ablation” (Auckland Uniservices Limited, priority 2011, published 2015)

Columns and labels:
[1] = tested on: HCT-116 cells stably expressing E. coli NfsA; experiment: Flow cytometry of metabolism and cellular retention (EF5 antibody); format: cell-based, human; settings: 20 μM; for Metabolism and cellular retention by FACS, HCT-116 NfsA cells (FIG. 3): 2 hours, oxic conditions (21% O2, 5% CO2)
Protocol: FIG. 3 illustrates the results of flow cytometry analysis of HCT-116 cells stably expressing E. coli NfsA relative to HCT-116 wild-type cells after in vitro exposure to 20 μM of compounds 15, 93 and 67 for 2 hours. 1×10^6 cells were incubated with test compounds under oxic conditions. Samples were fixed and stained with EF5 antibody Alexa 488 ELK3.51 at 100 μg/ml. Samples were then analysed on a Becton Dickinson FACscan flow cytometer.
FIG. 4 illustrates the results of a second independent flow cytometry analysis of compound 15 and 93 metabolism and binding in wild-type HCT-116 cells, HCT-116 cells stably over-expressing cytochrome P450 reductase (CYPOR), a human one-electron reductase known to metabolise nitroheterocyclic and nitroaromatic compounds, or HCT-116 cells stably expressing the bacterial nitroreductase E. coli NfsA. 1×10^6HCT-116 cells were seeded in 6 well plates underaerobic conditions (21% O2, 5% CO2). After 2 h incubation, drug free control (wild-type HCT-116, foreground), 20 μM (wild-type HCT-116, second plot), 100 μM (wild-type HCT-116, third plot), 20 μM (HCT-116-CYPOR, forth plot), 100 μM (HCT-116-CYPOR, fifth plot) or 20 μM (HCT-116-NfsA, sixth plot) of compound 15 or 93 was added. After 2 h incubation cells were harvested and fixed with paraformaldehyde before being incubated overnight with 100 μl of 75 μg/ml EF5 CY5 conjugated antibody. Samples were then analysed on a Becton Dickinson FACscan flow cytometer.

[2] = tested on: human solid tumour xenograft HCT116 (WT); experiment: Hypoxia-dependent binding by immunofluorescent microscopy with pimonidazole co-staining; format: in vivo, NIH-III nude mice; settings: 60 mg/kg i.p., 60 minutes after 60 mg/kg pimonidazole; tumours excised after 120 minutes
Protocol: FIG. 9 illustrates the absence of hypoxic dependent binding of compound 67 in the human solid tumour xenograft HCT116 relative to compound 15 whilst including hypoxia co-staining by pimonidazole (Hypoxyprobe™) as an internal reference (positive control). HCT116 WT tumours were inoculated subcutaneously onto the flank of NIH-Ill nude mice. When the mixed tumours reached approximately 500 mm^3, mice were dosed i.p. with 60 mg/kg of pimonidazole, and 60 minutes later dosed with either 60 mg/kg of compound 15 or 60 mg/kg of compound 67. After 120 minutes the tumours were excised, and fixed in formalin before being embedded in paraffin wax. Tumour section were cut (5 microns) and mounted onto glass slides for immunodetection of bound adducts of compounds. Immunofluorescent microscopy was performed using a monoclonal antibody (Mab1, hybridoma clone 4.3.11.3) conjugated to Alexa-488 (green) for the detection of pimonidazole adducts, and monoclonal antibody ELK3-51 directly conjugated to the fluorophore CY5 (Ex/Em 650/670 nm) for detection of adducts formed by compound 15 or compound 67. The overlap of pimonidazole with either one of these markers appears as yellow. Images were acquired on a Zeiss LSM 710 confocal microscope (×20 magnification).

[3] = tested on: human solid tumour xenograft NCI-H1299 (WT); experiment: Hypoxia-dependent binding by ex vivo flow cytometry with pimonidazole co-staining; format: in vivo, NIH-III nude mice; settings: 60 mg/kg i.p.; tumours excised after 120 minutes, single cell suspension
Protocol: FIG. 11 illustrates the absence of hypoxic-dependent binding of compound 67 and compound 93 by flow cytometry in the human solid tumour xenograft NCI-H1299, with reference to hypoxia staining by compound 15 and pimonidazole (Hypoxyprobe™) as internal standards (positive controls). NCI-H1299 WT tumours were inoculated subcutaneously onto the flank of NIH-III nude mice. When the mixed tumours reached approximately 800 mm^3, mice were dosed i.p. with 60 mg/kg of pimonidazole, and 60 minutes later dosed with either 60 mg/kg of compound 15, or 60 mg/kg of compound 67, or 60 mg/kg of compound 93. After 120 minutes the tumours were excised and enzyme digested to form a single cell suspension before fixation in ice cold 80% ethanol. Single cell immunodetection of bound adducts of compounds was performed using a monoclonal antibody (Mab1, hybridoma clone 4.3.11.3) conjugated to Alexa-488 (Ex/Em 499/519; green) for the detection of pimonidazole adducts, and monoclonal antibody ELK3-51 directly conjugated to the fluorophore CY5 (Ex/Em 650/670 nm; red) for detection of adducts formed by compound 15 or compound 67 or compound 93. The ex-vivo tumour cell samples were analysed on a Becton Dickinson FACscan flow cytometer using FACS Diva software. Integrated fluorescence measurements were recorded for 10,000 single non-debris events. Fluorescence emission was monitored at 530 nm±20 and 670-700 nm for detection of Alexa-488 and CY5 conjugated monoclonal antibodies, respectively.

[4] = biological target: T1, NfsB (E.c) (Escherichia coli, UniProt P38489); experiment: Initial rate of metabolism by purified recombinant bacterial nitroreductase (NADPH consumption, UV/Vis); format: biochemical; settings: compound 500 μM, NADPH 200 μM, 10 mM Tris-Cl pH 7.0; μmol NADPH consumed per mg enzyme per minute
T1 construct: made in house
T1 sequence (P38489 whole entry): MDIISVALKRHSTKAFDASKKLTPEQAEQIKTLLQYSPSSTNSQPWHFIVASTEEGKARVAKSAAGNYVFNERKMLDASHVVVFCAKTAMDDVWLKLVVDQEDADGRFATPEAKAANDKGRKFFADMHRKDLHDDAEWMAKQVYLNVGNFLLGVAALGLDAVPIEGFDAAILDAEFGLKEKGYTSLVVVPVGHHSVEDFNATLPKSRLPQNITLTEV
Protocol: The relative initial rates of reductive metabolism of the nitro moiety of test compounds by bacterial nitroreductase's can be measured experimentally by incubating the test compound at near-saturating concentration (determined empirically) with the purified recombinant bacterial nitroreductase enzymes in the presence of NADPH co-factor. UV/Vis spectroscopy is used to measure consumption of the co-factor, indicating metabolism of the test compound by the nitroreductase.
Compounds 67, 93 and 97 (500 μM) were added to NADPH (200 μM) in 10 mM Tris-Cl pH 7.0. Reactions were initiated by enzyme addition (between 5 and 20 μg per reaction). Rates represent μmol of NADPH consumed per mg enzyme added per minute.

Cc1ncc([N+](=O)[O-])n1CC(=O)NCC(F)(F)C(F)(F)F [Compound 67, 2-(2-methyl-5-nitro-1H-imidazol-1-yl)-N-(2,2,3,3,3-pentafluoropropyl)acetamide]
Metabolism and cellular retention by FACS, HCT-116 NfsA cells (FIG. 3) [1]: excellent substrates for E. coli NfsA
Hypoxia-dependent binding in HCT116 WT tumours (FIG. 9) [2]: not detected in the pimonidazole positive hypoxic regions of the tumour
Hypoxia-dependent binding in NCI-H1299 WT tumours, flow cytometry (FIG. 11) [3]: unable to bind to and thus detect pimonidazole-positive (hypoxic) tumour cells

O=C(Cn1cnc([N+](=O)[O-])c1)NCC(F)(F)C(F)(F)F [Compound 93, 2-(4-nitro-1H-imidazol-1-yl)-N-(2,2,3,3,3-pentafluoropropyl)acetamide]
Rate of metabolism by NfsB (E.c) [4]: 0.82 µmol/min/mg
Metabolism and cellular retention by FACS, HCT-116 NfsA cells (FIG. 4) ([1]; 2 h, aerobic conditions): excellent substrates for E. coli NfsA
Metabolism and cellular retention by FACS, HCT-116 NfsA cells (FIG. 3) [1]: excellent substrates for E. coli NfsA
Hypoxia-dependent binding in NCI-H1299 WT tumours, flow cytometry (FIG. 11) [3]: unable to bind to and thus detect pimonidazole-positive (hypoxic) tumour cells
